From patent US20130316963A1, “INNATE DEFENCE REGULATORY PEPTIDE COMPOSITIONS FOR TREATMENT OF ARTHRITIS” (UNIVERSITY OF MANITOBA, priority 2010, published 2013)

What was measured:
Type in all cases: cell-based
[1] = tested on: JNK; experiment: JNK activity assay (immunoprecipitation, c-Jun Ser73 phosphorylation immunoblot) in human FLS cells; conditions: IL-1β 10 ng/ml 15 min; IDR-1002 100 μg/ml 45 min prior to or at time of stimulation; FIG. 8
Description: Human FLS cells (5×10^4/ml) were seeded in a total volume of 20 ml per 75 cm^2 tissue culture flask in complete DMEM media containing 10% FBS for each condition. The cells were allowed to adhere overnight. Following day the media was changed to 10 ml complete DMEM containing 1% FBS. The cells were either un-stimulated or treated with IL-1β (10 ng/ml) in the presence or absence of IDR-1002 (100 μg/ml) for 15 min. IL-1β is known to induce JNK activation, and also p38 MAPK activity, after 15 min in FLS cells. Peptide IDR-1002 (100 μg/ml) was added either 45 min prior to, or at the time of stimulation with IL-1β. Total protein concentration was evaluated for each cell lysate employing micro BCA (Thermo Scientific). Kinase activities specific to JNK and to p38-MAPK were monitored employing the JNK activity assay kit and the p38 MAPK assay kit (Abcam Inc., Calif., USA) following the manufacturer's instructions. For JNK, 50 μg of total protein per cell lysate was used for immunoprecipitation employing a JNK-specific antibody. The eluate was treated with c-Jun substrate and ATP mixture. Subsequent phosporylation of c-Jun was evaluated by probing immunoblots with anti-phospho-c-Jun (Ser73) specific antibody. […] Subsequent phosporylation of ATF-2 was evaluated by probing immunoblots with a phospho-ATF-2 (Thr76) specific antibody. […]

[2] = tested on: human FLS cells; experiment: Transcriptional responses for IL-IRA and SIGIRR in human FLS cells (quantitative real-time PCR); conditions: FIG. 6; for IL-IRA transcription / SIGIRR transcription: in comparison to IL-1β alone, 2 hrs
Description: Additionally, transcriptional responses for IL-IRA and SIGIRR in these cell cultures were evaluated by quantitative real-time PCR after 2 hrs.

[3] = tested on: human FLS cells; experiment: IL-IRA production in human FLS cells stimulated with IL-1β (ELISA); conditions: 48 hr, FIG. 5
Description: (§1) Tissue culture supernatants were harvested from human FLS cells after stimulation for 48 hr with IL-1β with and without IDR-1002. The supernatants were centrifuged at 1500×g for 7 min to obtain cell-free samples. The samples were aliquoted and stored at −20° C. until further use. Production of IL-IRA in the tissue culture supernatants was monitored using Quantikine® human […] ELISA following the manufacturer's instructions. […] Results shown are an average of at least three independent biological experiments performed with cells isolated from synovial tissues obtained from independent donors±standard error (*p<0.05, **p<0.01).

[4] = tested on: human FLS cells; experiment: IL-6 production in human FLS cells stimulated with TGF-β (ELISA); conditions: FIG. 4
Description: as §1, with “24” for “48”, “TGF-β” for “IL-1β”, “IL-6” for “IL-IRA”, “instructions. […] FLS cells stimulated with TGF-β produced more than 500 pg/ml of IL-6.” for “instructions.”

[5] = tested on: Human macrophage-like THP-1 cells; experiment: TNF-α and IL-1β production in IL-32-stimulated THP-1 cells (ELISA); conditions: 24 hr; for reduction of IL-32-induced TNF-α production: FIG. 7A; for reduction of IL-32-induced IL-1β production: FIG. 7B
Description: Human macrophage-like THP-1 cells were stimulated for 24 hr with pro-inflammatory cytokine IL-32 (20 ng/ml) in the presence and absence of IDR-1002 (10 or 20 μM). The tissue culture supernatants were monitored for the production of pro-inflammatory cytokines TNF-α and IL-1β after 24 hr by ELISA as described previously.

In the case of VQRWLIVWRIRK (IDR-1002 peptide), the “IL-1β-induced JNK activity and phosphorylation of c-Jun (Ser73)” value [1] is reported as “abrogated”, the IL-IRA transcription ([2]; IDR-1002 alone) is reported as “significantly increased” and the SIGIRR transcription ([2]; IDR-1002 alone) is reported as “significantly increased”. The IL-IRA transcription ([2]; IDR-1002 plus IL-1β) was “significantly increased”, the SIGIRR transcription ([2]; IDR-1002 plus IL-1β) was “significantly increased” and the “SIGIRR gene expression induced by IDR-1002 relative to cells stimulated with IL-1β” value ([2]; human FLS) was “more than 9 fold”. The “IL-IRA production with IL-1β in the presence of IDR-1002, relative to IL-1β in the presence of IDR-1” value [3] was “more than twice as much IL-IRA”, the “IL-IRA production with IL-1β in the presence of IDR-1002, relative to IL-1β alone” value ([3]; IL-1β alone about 150 pg/ml) was “more than twice as much IL-IRA” and the “IL-IRA production by IDR-1002 alone” value ([3]; no IL-1β) was “did not stimulate production of IL-IRA”. The “reduction in TGF-β-induced IL-6 production” value ([4]; TGF-β with IDR-1002, 24 hr) was “more than 50%”, the “IL-6 production by IDR-1002 alone” value ([4]; no TGF-β, 24 hr) was “did not stimulate production of IL-6” and the “reduction of IL-32-induced TNF-α production” value ([5]; 10 μM IDR-1002, IL-32 20 ng/ml) was 40%. The “reduction of IL-32-induced IL-1β production” value ([5]; 10 μM IDR-1002, IL-32 20 ng/ml) was “about 40%”, the “reduction of IL-32-induced TNF-α production” value ([5]; 20 μM IDR-1002, IL-32 20 ng/ml) was “about 70%” and the “reduction of IL-32-induced IL-1β production” value ([5]; 20 μM IDR-1002, IL-32 20 ng/ml) was “about 65%”.
